Assay: Test of solubility property
Details: for HDDA (g/100 g): largest weight dissolved in 100 g of 1,6-hexanediol diacrylate (HDDA) at 20° C.; for Acetone (g/100 g): largest weight dissolved in 100 g of acetone at 20° C.

Row | HDDA (g/100 g) | Acetone (g/100 g) | solubility (in the UV curing ink formulation, about 10% of butanone solvent required to dissolve completely) | SMILES
1 | >15 | >30 |  | C=CCC1(CC=C)c2cc(OC)ccc2-c2ccc(C(=O)C(C)(C)N3CCOCC3)cc21 [Compound 4]
2 | >15 | >30 |  | CCCCC1(CCCC)c2ccccc2-c2ccc(C(=O)C(C)(C)N3CCOCC3)cc21 [Compound 5]
3 | >15 | >30 |  | CCCCC1(CCCC)c2cc(C(=O)c3ccccc3)ccc2-c2ccc(C(=O)C(C)(C)N3CCOCC3)cc21 [Compound 9]
4 | >15 | >30 |  | CCCCC1(CCCC)c2cc(C(=O)C(CC)(Cc3ccccc3)N(C)C)ccc2-c2ccc(N3CCOCC3)cc21 (stereo not shown) [Compound 14]
5 | >15 | >30 |  | CC(C)(C(=O)c1ccc2c(c1)Cc1cc(C(=O)C(C)(C)N3CCCCC3)ccc1-2)N1CCCCC1 [Compound 24]
6 | >15 | >30 |  | C=CCC1(CC=C)c2ccccc2-c2ccc(C(=O)C(CC)(Cc3ccccc3)N(C)C)cc21 (stereo not shown) [Compound 34]
7 | >15 | >30 |  | CCC(Cc1ccccc1)(C(=O)c1ccc2c(c1)C(C)(C)c1cc(N3CCOCC3)ccc1-2)N(C)C (stereo not shown) [Compound 38, 2-benzyl-2-dimethylamino-9,9-dimethyl-1-(7-morpholinofluorenyl)butanone]
8 | >15 | >30 |  | C=CCC(CC)(C(=O)c1ccc2c(c1)C(C)(C)c1cc(N3CCCCC3)ccc1-2)N(C)C (stereo not shown) [Compound 39, 2-allyl-2-dimethylamino-9,9-dimethyl-2-(7-piperidinylfluorenyl)butanone]
9 | >15 | >30 |  | CCCCC1(CCCC)c2ccccc2-c2ccc(C(=O)C(CC)(Cc3ccccc3)N(C)C)cc21 (stereo not shown) [Compound 40, 2-benzyl-2-dimethylamino-9,9-dibutylfluorene-1-butanone]
10 | >15 | >30 |  | CCCCC1(CCCC)c2cc(C(=O)c3ccccc3)ccc2-c2ccc(C(=O)C(CC)(Cc3ccccc3)N(C)C)cc21 (stereo not shown) [Compound 41, 2-benzyl-2-dimethylamino-9,9-dibutyl-1-(7-benzoyl)butanone]
11 | 5 | 17 | relatively poor | CCC(Cc1ccccc1)(C(=O)c1ccc(N2CCOCC2)cc1)N(C)C (stereo not shown) [Irgacure 369, 2-benzyl-2-dimethylamino-1-(4-morpholinophenyl)butanone, reference compound]
12 | 11 | 24 |  | CCC(Cc1ccc(C)cc1)(C(=O)c1ccc(N2CCOCC2)cc1)N(C)C (stereo not shown) [Irgacure 379, 2-(4-methylbenzyl)-2-dimethylamino-1-(4-morpholinophenyl)butanone, reference compound]

Row | SMILES | HDDA (g/100 g) | Acetone (g/100 g) | solubility (in the UV curing ink formulation, about 10% of butanone solvent required to dissolve completely)
13 | CCCCN(CCCC)c1ccc2c(c1)C(C)(C)c1cc(C(=O)C(CC)(Cc3ccccc3)N(C)C)ccc1-2 (stereo not shown) [Compound 42] | >15 | >30 | 
14 | CCCC1(CCC)c2cc(C(=O)C(CC)(Cc3ccccc3)N(C)C)ccc2-c2ccc(N3CCCCC3)cc21 (stereo not shown) [Compound 43] | >15 | >30 | 
15 | CCC(Cc1ccccc1)(C(=O)c1ccc2c(c1)C(C)(C)c1cc(N(CCO)CCO)ccc1-2)N(C)C (stereo not shown) [Compound 45] | >15 | >30 | 
